Test results taken from patent US20240116985A1, “STAPLED PEPTIDES AND METHODS THEREOF” (priority 2020, published 2024).
pIC50: −log10 of the molar value. In brackets after ≈: the same amount, converted by molar mass. Read-outs that look alike come from different tables or passages of the source.

Tests used:
Solubility in PBS = assay type: physicochemical
How it was run: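 The PBS solution was ultracentrifuged and the supernatant analyzed by HPLC. Its peak area was divided by that of a 50 μM peptide DMSO reference injection and multiplied by 50 uM to give solubility.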

[1] = target: T1, beta-catenin/TCF4 engagement (Homo sapiens, UniProt P35222); experiment: Nano-BRET target engagement assay (B-cat-Halo & TCF4-Luc in HEK293 cells); assay type: cell-based; conditions: read-out: NanoBRET Abs IC50
T1 construct: expressed in transfected cells; host or cells: HEK293
T1 sequence (P35222 1-781): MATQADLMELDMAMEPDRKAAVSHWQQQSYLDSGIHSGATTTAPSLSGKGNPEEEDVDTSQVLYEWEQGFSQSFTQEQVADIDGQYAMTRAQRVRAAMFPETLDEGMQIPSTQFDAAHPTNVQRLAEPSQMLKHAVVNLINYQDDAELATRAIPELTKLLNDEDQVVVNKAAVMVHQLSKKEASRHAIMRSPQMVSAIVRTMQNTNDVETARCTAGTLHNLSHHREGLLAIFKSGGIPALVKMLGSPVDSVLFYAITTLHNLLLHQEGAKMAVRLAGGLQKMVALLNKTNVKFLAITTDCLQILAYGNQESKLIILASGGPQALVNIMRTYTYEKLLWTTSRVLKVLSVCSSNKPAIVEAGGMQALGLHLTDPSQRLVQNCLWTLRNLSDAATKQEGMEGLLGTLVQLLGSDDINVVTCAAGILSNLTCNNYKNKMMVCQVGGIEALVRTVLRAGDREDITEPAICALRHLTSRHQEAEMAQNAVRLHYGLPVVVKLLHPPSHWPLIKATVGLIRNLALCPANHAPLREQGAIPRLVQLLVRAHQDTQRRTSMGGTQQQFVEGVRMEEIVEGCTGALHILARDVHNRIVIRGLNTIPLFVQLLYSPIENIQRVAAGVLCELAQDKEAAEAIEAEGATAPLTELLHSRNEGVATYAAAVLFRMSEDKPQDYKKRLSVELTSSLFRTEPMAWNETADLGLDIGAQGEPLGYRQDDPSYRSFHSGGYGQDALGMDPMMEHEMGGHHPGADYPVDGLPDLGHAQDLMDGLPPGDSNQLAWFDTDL

CHI Log D procedure = assay type: physicochemical; conditions: pH 7.4, CHI Log D
[2] = target: T2, full-length beta-Catenin (Uniprot ID P35222) (Homo sapiens, UniProt P35222); experiment: Fluorescence polarization IC50 (beta-catenin / 5FAM-TCF4 10-53 competition); assay type: binding; conditions: read-out: beta-Catenin FP IC50
T2 construct: 10 nM full-length beta-Catenin (Uniprot ID P35222)
T2 sequence (P35222 1-781): T1 sequence (P35222 1-781)

Structure (SMILES)	Solubility (Solubility in PBS)	pIC50 [1]	chromatographic logD (CHI Log D procedure)	pIC50 [2]	Solubility (Solubility in PBS; Solubility (uM))	pIC50 ([1]; absolute IC50)
CC(=O)N1CCC[C@]12CC=CCCCC1(CCCC=CCCCOC(=O)N3CC[C@@](C(=O)N[C@@H](Cc4ccccc4Cl)C(=O)N[C@@H](Cc4csc5ccccc45)C(=O)N[C@@H](CCC(N)=O)C(N)=O)(C3)NC(=O)[C@H](CC(C)C)NC(=O)[C@H](Cc3ccccc3)NC(=O)[C@H](C)NC(=O)[C@H](C)NC(=O)[C@H](CC(=O)O)NC(=O)[C@H](CC(=O)O)NC1=O)NC(=O)[C@H](Cc1cccc3ccccc13)NC(=O)[C@H](CC(=O)O)NC2=O (stereo partly drawn) [I-1110, Ac-PL3-Asp-1NapA-B5-Asp-Asp-Ala-Ala-Phe-Leu-PyrS2-2C1F-BztA-Gln-NH2]	10 µM (≈ 20.2 µg/mL)	< 4.70	2.37	7.42	–	–
CC(=O)N1CCC[C@]12CC=CCCCC1(CCCC=CCCCOC(=O)N3CC[C@@](C(=O)N[C@@H](Cc4ccccc4Cl)C(=O)N[C@@H](Cc4csc5ccccc45)C(=O)N[C@@H](CCC(N)=O)C(N)=O)(C3)NC(=O)[C@H](CC(C)C)NC(=O)[C@H](Cc3ccccc3)NC(=O)[C@H](C)NC(=O)[C@H](C)NC(=O)[C@H](CC(=O)O)NC(=O)[C@H](CC(=O)O)NC1=O)NC(=O)[C@H](Cc1ccc3ccccc3c1)NC(=O)[C@H](CC(=O)O)NC2=O (stereo partly drawn) [I-1111, Ac-PL3-Asp-2NapA-B5-Asp-Asp-Ala-Ala-Phe-Leu-PyrS2-2C1F-BztA-Gln-NH2]	10 µM (≈ 20.2 µg/mL)	< 4.70	2.36	7.55	–	–
CC(=O)N1CCC[C@]12CC=CCCCC1(CCCC=CCCCOC(=O)N3CC[C@@](C(=O)N[C@@H](Cc4ccccc4Cl)C(=O)N[C@@H](Cc4csc5ccccc45)C(=O)N[C@@H](CO)C(N)=O)(C3)NC(=O)[C@H]([C@@H](C)O)NC(=O)[C@H](Cc3ccccc3)NC(=O)[C@H](C)NC(=O)[C@H](C)NC(=O)[C@H](CC(=O)O)NC(=O)[C@H](CC(=O)O)NC1=O)NC(=O)[C@H](Cc1cccc3ccccc13)NC(=O)[C@H](CC(=O)O)NC2=O (stereo partly drawn) [I-1114, Ac-PL3-Asp-1NapA-B5-Asp-Asp-Ala-Ala-Phe-Thr-PyrS2-2C1F-BztA-Ser-NH2]	–	< 4.70	2.49	7.70	28 µM (≈ 55 µg/mL)	–
CC(=O)N1CCC[C@]12CC=CCCCC1(CCCC=CCCCOC(=O)N3CC[C@@](C(=O)N[C@@H](Cc4ccccc4Cl)C(=O)N[C@@H](Cc4csc5ccccc45)C(=O)N[C@@H](CO)C(N)=O)(C3)NC(=O)[C@H]([C@@H](C)O)NC(=O)[C@H](Cc3ccccc3)NC(=O)[C@H](C)NC(=O)[C@H](C)NC(=O)[C@H](CC(=O)O)NC(=O)[C@H](CC(=O)O)NC1=O)NC(=O)[C@H](Cc1ccc3ccccc3c1)NC(=O)[C@H](CC(=O)O)NC2=O (stereo partly drawn) [I-1115, Ac-PL3-Asp-2NapA-B5-Asp-Asp-Ala-Ala-Phe-Thr-PyrS2-2C1F-BztA-Ser-NH2]	–	4.61	2.5	7.55	32 µM (≈ 62.8 µg/mL)	–
COc1cccc(C[C@@H]2NC(=O)[C@H](C)NC(=O)[C@H](C)NC(=O)[C@H](CC(=O)O)NC(=O)[C@H](CC(=O)O)NC(=O)C3(CCCC=CCCCOC(=O)N4CC[C@@](C(=O)N[C@@H](Cc5ccccc5Cl)C(=O)N[C@@H](Cc5csc6ccccc56)C(=O)N[C@@H](CCC(N)=O)C(N)=O)(C4)NC(=O)[C@H](CO)NC2=O)CCCC=CC[C@]2(CCCN2C(C)=O)C(=O)N[C@@H](CC(=O)O)C(=O)N[C@@H](CC2CCCCC2)C(=O)N3)c1 (stereo partly drawn) [I-1118, Ac-PL3-Asp-Cha-B5-Asp-Asp-Ala-Ala-3OMeF-Ser-PyrS2-2C1F-BztA-Gln-NH2]	–	4.53	2.34	7.62	37 µM (≈ 73.1 µg/mL)	–
CC(=O)N1CCC[C@]12CC=CCCCC1(CCCC=CCCCOC(=O)N3CC[C@@](C(=O)N[C@@H](Cc4ccccc4Cl)C(=O)N[C@@H](Cc4csc5ccccc45)C(=O)N[C@@H](CCC(N)=O)C(N)=O)(C3)NC(=O)[C@H](CO)NC(=O)[C@H](Cc3cccc(C(F)(F)F)c3)NC(=O)[C@H](C)NC(=O)[C@H](C)NC(=O)[C@H](CC(=O)O)NC(=O)[C@H](CC(=O)O)NC1=O)NC(=O)[C@H](CC1CCCCC1)NC(=O)[C@H](CC(=O)O)NC2=O (stereo partly drawn) [I-1119, Ac-PL3-Asp-Cha-B5-Asp-Asp-Ala-Ala-3F3MeF-Ser-PyrS2-2C1F-BztA-Gln-NH2]	–	4.71	2.51	7.59	31 µM (≈ 62.4 µg/mL)	–
CC(=O)N1CCC[C@]12CC=CCCCC1(CCCC=CCCCOC(=O)N3CC[C@@](C(=O)N[C@@H](Cc4ccccc4Cl)C(=O)N[C@@H](Cc4csc5ccccc45)C(=O)N[C@@H](CCC(N)=O)C(N)=O)(C3)NC(=O)[C@H](CO)NC(=O)[C@H](Cc3ccc(C(F)(F)F)cc3)NC(=O)[C@H](C)NC(=O)[C@H](C)NC(=O)[C@H](CC(=O)O)NC(=O)[C@H](CC(=O)O)NC1=O)NC(=O)[C@H](CC1CCCCC1)NC(=O)[C@H](CC(=O)O)NC2=O (stereo partly drawn) [I-1120, Ac-PL3-Asp-Cha-B5-Asp-Asp-Ala-Ala-4F3MeF-Ser-PyrS2-2C1F-BztA-Gln-NH2]	–	< 4.70	2.54	7.07	41 µM (≈ 82.6 µg/mL)	–
COc1cccc(C[C@@H]2NC(=O)[C@H](C)NC(=O)[C@H](C)NC(=O)[C@H](CC(=O)O)NC(=O)[C@H](CC(=O)O)NC(=O)C3(CCCC=CCCCOC(=O)N4CC[C@@](C(=O)N[C@@H](Cc5ccccc5Cl)C(=O)N[C@@H](Cc5csc6ccccc56)C(=O)N[C@@H](CCC(N)=O)C(N)=O)(C4)NC(=O)[C@H](CC(C)C)NC2=O)CCCC=CC[C@]2(CCCN2C(C)=O)C(=O)N[C@@H](CC(=O)O)C(=O)N[C@@H](CC(C)(C)C)C(=O)N3)c1 (stereo partly drawn) [I-1121, Ac-PL3-Asp-Npg-B5-Asp-Asp-Ala-Ala-3OMeF-Leu-PyrS2-2C1F-BztA-Gln-NH2]	–	5.04	2.31	7.74	41 µM (≈ 81 µg/mL)	–
CC(=O)N1CCC[C@]12CC=CCCCC1(CCCC=CCCCOC(=O)N3CC[C@@](C(=O)N[C@@H](Cc4ccccc4Cl)C(=O)N[C@@H](Cc4csc5ccccc45)C(=O)N[C@@H](CCC(N)=O)C(N)=O)(C3)NC(=O)[C@H](CC(C)C)NC(=O)[C@H](Cc3cccc(C(F)(F)F)c3)NC(=O)[C@H](C)NC(=O)[C@H](C)NC(=O)[C@H](CC(=O)O)NC(=O)[C@H](CC(=O)O)NC1=O)NC(=O)[C@H](CC(C)(C)C)NC(=O)[C@H](CC(=O)O)NC2=O (stereo partly drawn) [I-1122, Ac-PL3-Asp-Npg-B5-Asp-Asp-Ala-Ala-3F3MeF-Leu-PyrS2-2C1F-BztA-Gln-NH2]	–	4.91	2.41	7.47	14 µM (≈ 28.2 µg/mL)	–
CC(=O)N1CCC[C@]12CC=CCCCC1(CCCC=CCCCOC(=O)N3CC[C@@](C(=O)N[C@@H](Cc4ccccc4Cl)C(=O)N[C@@H](Cc4csc5ccccc45)C(=O)N[C@@H](CCC(N)=O)C(N)=O)(C3)NC(=O)[C@H](CC(C)C)NC(=O)[C@H](Cc3ccc(C(F)(F)F)cc3)NC(=O)[C@H](C)NC(=O)[C@H](C)NC(=O)[C@H](CC(=O)O)NC(=O)[C@H](CC(=O)O)NC1=O)NC(=O)[C@H](CC(C)(C)C)NC(=O)[C@H](CC(=O)O)NC2=O (stereo partly drawn) [I-1123, Ac-PL3-Asp-Npg-B5-Asp-Asp-Ala-Ala-4F3MeF-Leu-PyrS2-2C1F-BztA-Gln-NH2]	–	4.55	2.46	7.19	12 µM (≈ 24.2 µg/mL)	–
COc1cccc(C[C@@H]2NC(=O)[C@H](C)NC(=O)[C@H](C)NC(=O)[C@H](CC(=O)O)NC(=O)[C@H](CC(=O)O)NC(=O)C3(CCCC=CCCCOC(=O)N4CC[C@@](C(=O)N[C@@H](Cc5ccccc5)C(=O)N[C@@H](Cc5csc6ccccc56)C(=O)N[C@@H](CCC(N)=O)C(N)=O)(C4)NC(=O)[C@H](CO)NC2=O)CCCC=CC[C@]2(CCCN2C(C)=O)C(=O)N[C@@H](CC(=O)O)C(=O)N[C@@H](CC2CCCCC2)C(=O)N3)c1 (stereo partly drawn) [I-1124, Ac-PL3-Asp-Cha-B5-Asp-Asp-Ala-Ala-3OMeF-Ser-PyrS2-Phe-BztA-Gln-NH2]	–	–	2.22	7.92	47 µM (≈ 91.2 µg/mL)	< 4.70
CC(=O)N1CCC[C@]12CC=CCCCC1(CCCC=CCCCOC(=O)N3CC[C@@](C(=O)N[C@@H](Cc4ccccc4)C(=O)N[C@@H](Cc4csc5ccccc45)C(=O)N[C@@H](CCC(N)=O)C(N)=O)(C3)NC(=O)[C@H](CO)NC(=O)[C@H](Cc3cccc(C(F)(F)F)c3)NC(=O)[C@H](C)NC(=O)[C@H](C)NC(=O)[C@H](CC(=O)O)NC(=O)[C@H](CC(=O)O)NC1=O)NC(=O)[C@H](CC1CCCCC1)NC(=O)[C@H](CC(=O)O)NC2=O (stereo partly drawn) [I-1125, Ac-PL3-Asp-Cha-B5-Asp-Asp-Ala-Ala-3F3MeF-Ser-PyrS2-Phe-BztA-Gln-NH2]	–	–	2.39	7.80	45 µM (≈ 89.1 µg/mL)	< 4.70
